Measured values reported in patent US10441537B2, “Unit doses, aerosols, kits, and methods for treating heart conditions by pulmonary administration” (InCarda Therapeutics, Inc., priority 2017, dated 2019).
Like-named read-outs stand apart in the source and are kept apart here.

How the values were obtained:
[1] = test system: induced atrial fibrillation; test: Induced atrial fibrillation model in anesthetized dogs, intratracheal (IT) administration; assay type: in vivo
Description: Atrial Fibrillation Model: Anesthesia/Surgical Preparation: A venous catheter was placed in a peripheral vessel (i.e., cephalic) for administration of anesthetic. […] Following induction, animals were endotracheally intubated and mechanically ventilated (˜12 breaths/minute with a tidal volume of 200-300 mL). Subsequently, a cut-down on a jugular vein permitted introduction of a pacing lead into the right atrium. Transthoracic electrodes forming ECG lead II were placed. For test/vehicle article delivery, a 4F catheter was introduced through the trachea and wedged into a small airway, and a venous catheter was placed in a peripheral vessel (i.e., cephalic). […] Approximately 5 min after administration of this parasympathomimetic was started; the following experiments were performed: […] Observations were made for up to 10 minutes. […] Vehicle was only water.

[2] = Phase 1 study: venous plasma pharmacokinetics; assay type: in vivo, human; conditions: for Tmax / Cmax / AUC(0-t) / half-life: venous plasma; for Dist. t1/2α, mean (CV %): both; for half-life: read-out: Elim. t1/2, mean (CV %) (converted)
Description: In this study, for inhalation delivery of flecainide, the estimated total lung doses (eTLDs) were calculated to account for losses of flecainide in the inhalation device and losses of flecainide in subjects' mouth and throat. eTLD was thereby used to denote the dose that actually reached the lungs of the subjects. By design, in all nebulizers there can be a residual volume or mass of drug solution that stays in the nebulizer, and there can also be a percentage of the aerosol caught by subject's throat and mouth. For instance, in this study, it was estimated that 30% of the aerosol was lost in subject's throat and mouth.

healthy volunteers = conditions: in vivo
Description: 3 cohorts of subjects, in total 34 healthy adult volunteers, were recruited for Part A study.
Part B was an open label non-randomized crossover in a cohort of 6 evaluable healthy adult volunteers.
Adverse events were monitored and recorded.

in vivo = conditions: male, Yorkshire, pig, iv, 2 mg/kg
Description: The studies were carried out in male Yorkshire pigs (n=9) weighing 36±1.0 kg (mean±SEM). The pigs were pre-anesthetized with telazol (4.7 mg/kg, intramuscular) and subsequently further anesthetized using alpha-chloralose (80 mg/kg, IV bolus, followed by 24 mg/kg/h continuous IV infusion). The animals were intubated and ventilated at a constant rate of 12 breaths/min and tidal volume of 400 ml per stroke.
Simultaneous blood samples were drawn from the pigtail catheter positioned in the LV and from a catheter in the jugular vein.
The samples were centrifuged and frozen at −80° C. until drug level determination was performed using a bioanalytical assay method developed by Climax Laboratories, Inc.

Compound: O=C(NCC1CCCCN1)c1cc(OCC(F)(F)F)ccc1OCC(F)(F)F (stereo not drawn) [flecainide, flecainide acetate]
- ECG trace: Afib conversion ([1]; 2 mg/kg body weight (FIG. 12)): Afib converting as soon as dosing occurred
- ECG trace: Afib conversion ([1]; 4 mg/kg body weight, intra-tracheal instillation (FIG. 11)): Afib converting into normal sinus rhythm
- conversion of Atrial Fibrillation to normal sinus rhythm ([1]; IT bolus): rapidly converted the Atrial Fibrillation to normal sinus rhythm
- cardiovascular effect when given by intratracheal instillation (summary) ([1]; dog, in vivo): clear cardiovascular effect
- ventricular rate ([1]; large pulmonary doses): slower ventricular rates
- drop in mean arterial pressure ([1]; pulmonary dose 2-4 mg/kg): None to minimal drop in mean arterial pressure
- conversion of induced atrial fibrillation to normal sinus rhythm ([1]; pulmonary dose 2-4 mg/kg body weight): converted the induced atrial fibrillation to normal sinus rhythm
- Tmax, median (min, max) ([2]; IV 2 mg/Kg over 10 min, Cohort 5, n=6, 2 mg/kg): 1 (0, 60) min after EOI
- Elim. t1/2β, mean (CV %) ([2]; Inhaled 20 mg, n=6): 9.87 (25) hours
- Tmax, median (min, max) ([2]; Inhaled 30 mg, Cohort 5, n=6): ≤ 1 min after EOI
- Tmax, median (min, max) ([2]; Inhaled 30 mg, Cohort 5, n=6, listed as Flecainide): 0.5 (0, 1) min after EOI
- Elim. t1/2β, mean (CV %) ([2]; Inhaled 40 mg, n=8 (post-hoc)): 9.0 (24) hours
- Elim. t1/2β, mean (CV %) ([2]; Inhaled 60 mg, n=7 (post-hoc)): 12.0 (14) hours
- Tmax ([2]; both sexes, human, inhaled or intranasal, 20 mg, Inhaled 20 mg, n=6, from end of inhalation, read-out: Tmax, median (min, max) (converted)): 1 min
- Cmax ([2]; both sexes, human, inhaled or intranasal, 20 mg, Inhaled 20 mg, n=6, read-out: Cmax, arithmetic mean (CV %)): 95.1 ng/mL
- Cmax ([2]; both sexes, human, inhaled or intranasal, 40 mg, Inhaled 40 mg, n=8 (post-hoc), read-out: Cmax, mean (CV %)): 173 ng/mL
- Tmax ([2]; both sexes, human, inhaled or intranasal, 40 mg, Inhaled 40 mg, n=8 (post-hoc), read-out: Tmax, median (min, max) (converted)): 1 min
- Cmax ([2]; both sexes, human, inhaled or intranasal, 60 mg, Inhaled 60 mg, n=7 (post-hoc), read-out: Cmax, mean (CV %)): 232 ng/mL
- Tmax ([2]; both sexes, human, inhaled or intranasal, 60 mg, Inhaled 60 mg, n=7 (post-hoc), read-out: Tmax, median (min, max) (converted)): 1 min
- Tmax ([2]; both sexes, human, inhaled or intranasal, 60 mg, two subjects each of 40 and 60 mg eTLD cohorts, after the end of inhalation, read-out: Tmax of the four subjects excluded post hoc): 20 to 240 min
- AUC(0-t) ([2]; both sexes, human, inhaled or intranasal, Inhaled 20 mg, n=6, read-out: AUCLast, mean (CV %)): 421 ng·h/mL
- AUC(0-t) ([2]; both sexes, human, inhaled or intranasal, Inhaled 40 mg, n=8 (post-hoc), read-out: AUCLast, mean (CV %)): 685 ng·h/mL
- AUC(0-t) ([2]; both sexes, human, inhaled or intranasal, Inhaled 60 mg, n=7 (post-hoc), read-out: AUCLast, mean (CV %)): 946 ng·h/mL
- Cmax ([2]; both sexes, human, inhaled, 40 mg, 40 mg eTLD cohort, read-out: Cmax of the two excluded subjects): 70.9 ng/mL
- Cmax ([2]; both sexes, human, inhaled, 60 mg, 60 mg eTLD cohort, read-out: Cmax of the two excluded subjects): 82.3 ng/mL
- Dist. t1/2α, mean (CV %) ([2]; human, in vivo, inhaled or intranasal, 20 mg): 3.86 (34) min
- Dist. t1/2α, mean (CV %) ([2]; human, in vivo, inhaled or intranasal, 40 mg): 4.19 (39) min
- Dist. t1/2α, mean (CV %) ([2]; human, in vivo, inhaled or intranasal, 60 mg): 3.47 (17) min
- estimated t1/2α ([2]; human, in vivo): 3.5 to 4.2 min
- Cmax ([2]; human, inhaled or intranasal, 30 mg, Inhaled 30 mg, Cohort 5, n=6, read-out: Cmax, mean (CV %)): 120 ng/mL
- half-life ([2]; human, inhaled or intranasal, 30 mg, Inhaled 30 mg, Cohort 5, n=6): 606 min
- AUC(0-t) ([2]; human, inhaled or intranasal, Inhaled 30 mg, Cohort 5, n=6, read-out: AUClast, mean (CV %)): 487 ng·h/mL
- Cmax ([2]; human, iv, 2 mg/kg, IV 2 mg/Kg, Cohort 5, n=6, read-out: Cmax, mean (CV %)): 749 ng/mL
- half-life ([2]; human, iv, 2 mg/kg, IV 2 mg/Kg, Cohort 5, n=6): 600 min
- AUC(0-t) ([2]; human, IV 2 mg/Kg, Cohort 5, n=6, read-out: AUClast, mean (CV %)): 3050 ng·h/mL
- venous plasma concentration-time curves, inhaled vs IV ([2]; inhaled 30 mg eTLD vs IV 2 mg/kg (b559: IV normalized to 30 mg), Cohort 5, 2 mg/kg): near-identical
- dose proportionality of venous plasma concentrations ([2]; inhaled 20, 30 or 40 mg eTLD): near dose proportionality
- Adverse Event: Cough (healthy volunteers; both, human): 1
- Adverse Event: Lightheadedness (healthy volunteers; both, human): 1
- study-drug related Cough (healthy volunteers; both, human): 3 events in 3/25 subjects (12%)
- study-drug related Dry mouth (healthy volunteers; both, human): 3 events in 3/25 subjects (12%)
- study-drug related Dysgeusia (healthy volunteers; both, human): 2 events in 2/25 subjects (8%)
- study-drug related Dyspnoea (shortness of breath) (healthy volunteers; both, human): 4 events in 4/25 subjects (16%)
- study-drug related Oropharyngeal discomfort (healthy volunteers; both, human): 10 events in 10/25 subjects (40%)
- study-drug related dizziness (healthy volunteers; both, human): 3 events in 3/25 subjects (12%)
- study-drug related headache (healthy volunteers; both, human): 3 events in 2/25 subjects (8%)
- average events per subject (healthy volunteers; human): 2
- probably study-drug related oropharyngeal discomfort, subjects (healthy volunteers; human): 4
- study-drug related paresthesia oral (healthy volunteers; human): 3 events in 3 subjects
- average events per subject (healthy volunteers; human, iv): 7
- hypotension (systolic BP) for which the IV infusion had to be interrupted (healthy volunteers; human, iv): < 65 mmHg
- severe and moderate intensity AEs probably related to the study drug (healthy volunteers; human, iv): 1 severe and 2 moderate intensity AEs
- study-drug related application site coldness (healthy volunteers; human, iv): 2 occurrences in 2 subjects
- study-drug related dizziness (healthy volunteers; human, iv): 6 events in 6 subjects
- study-drug related headache (healthy volunteers; human, iv): 5 events in 5 subjects
- study-drug related peripheral coldness, palpitations, and chest discomfort (healthy volunteers; human, iv): each occurring 2 times 1 subject
- Number of Moderate or Severe TEAEs (healthy volunteers; human, iv, 2 mg/kg): 4
- Number of Related TEAEs (healthy volunteers; human, iv, 2 mg/kg): 35
- Number of Related, Moderate or Severe TEAEs (healthy volunteers; human, iv, 2 mg/kg): 4
- Number of SAEs (healthy volunteers; human, iv, 2 mg/kg): 0
- Number of Subjects with at least one Moderate or Severe TEAE (healthy volunteers; human, iv, 2 mg/kg): 2 subjects (29%) n (%)
- Number of Subjects with at least one TEAE (healthy volunteers; human, iv, 2 mg/kg): 7 (100) n (%)
- Number of Treatment-Emergent Adverse Events (healthy volunteers; human, iv, 2 mg/kg): 49
- TEAE: Chest discomfort (healthy volunteers; human, iv, 2 mg/kg): 3 such events also occurred in 1 subject n (%) [events]
- TEAE: Dizziness (healthy volunteers; human, iv, 2 mg/kg): 6 events in 6/7 subjects, 86% n (%) [events]
- TEAE: Headache (healthy volunteers; human, iv, 2 mg/kg): 6 events in 5/7 subjects, 71% n (%) [events]
- remaining study-drug related events (cough, dysphonia, dyspnoea, oral hypoesthesia, chest discomfort) (healthy volunteers; human, po): once in 1 subject each
- serious adverse events (healthy volunteers): No serious adverse events were reported
- tolerability (healthy volunteers): well tolerated
- Number of SAEs (healthy volunteers; iv, 2 mg/kg): no SAEs reported
- concentration at 30 min (in vivo; LV plasma level): 497 ± 190 ng/mL
- concentration at 30 min (in vivo; Venous plasma level): 519 ± 196 ng/mL
